{"source": "paper PMC6792352", "about": "“Limited Chemical Structural Diversity Found to Modulate Thyroid Hormone Receptor in the Tox21 Chemical Library” (Environmental Health Perspectives, 2019)", "test_system": "GH3-TRE-Luc cell line", "conditions": "read-out: AC50 (uM) modified / 1000, viability, 1 nM T3 present, 24 h", "note": "Structures can show the parent of a compound that is named as a salt. Where two headings read alike, the source gives them in different places."}
{"smiles": "Oc1ccc(O)cc1", "note": "[Hydroquinone]", "values": [{"measurement": "CC50", "setting": "Tox21_110001=Tox21_110169", "result": 16, "unit": "µM"}, {"measurement": "CC50", "setting": "Tox21_110001=Tox21_202345", "result": 32.2, "unit": "µM"}, {"measurement": "CC50", "setting": "Tox21_110001=Tox21_300015", "result": 21.9, "unit": "µM"}]}
{"smiles": "CN(C)CCCN1c2ccccc2CCc2ccccc21", "note": "[Imipramine]", "values": [{"measurement": "CC50", "setting": "Tox21_110001=Tox21_110174", "result": 9.04, "unit": "µM"}, {"measurement": "CC50", "setting": "Tox21_110001=Tox21_301417", "result": 19.5, "unit": "µM"}]}
{"smiles": "CC(C)(C)NC(=O)[C@@H]1CN(Cc2cccnc2)CCN1C[C@@H](O)C[C@@H](Cc1ccccc1)C(=O)N[C@H]1c2ccccc2C[C@H]1O", "note": "[Indinavir sulfate]", "values": [{"measurement": "CC50", "setting": "Tox21_110001=Tox21_111687", "result": 32, "unit": "µM"}]}
{"smiles": "NC[C@H]1O[C@H](O[C@H]2[C@H](O)[C@@H](O[C@H]3O[C@H](CO)[C@@H](O)[C@H](N)[C@H]3O)[C@H](N)C[C@@H]2N)[C@H](O)[C@@H](O)[C@@H]1O", "note": "[Kanamycin A sulfate]", "values": [{"measurement": "CC50", "setting": "Tox21_110001=Tox21_202817", "result": 3.08, "unit": "µM"}]}
{"smiles": "Cc1oncc1C(=O)Nc1ccc(C(F)(F)F)cc1", "note": "[Leflunomide]", "values": [{"measurement": "CC50", "setting": "Tox21_110001=Tox21_110182", "result": 9.39, "unit": "µM"}, {"measurement": "CC50", "setting": "Tox21_110001=Tox21_301873", "result": "> 90", "unit": "µM"}]}
{"smiles": "C#C[C@]1(O)CC[C@H]2[C@@H]3CCC4=CCCC[C@@H]4[C@H]3CC[C@@]21C", "note": "[Lynestrenol]", "values": [{"measurement": "CC50", "setting": "Tox21_110001=Tox21_110319", "result": 17.1, "unit": "µM"}, {"measurement": "CC50", "setting": "Tox21_110001=Tox21_301969", "result": 46.9, "unit": "µM"}]}
{"smiles": "CN(C)c1ccc(C(=C2C=CC(=[N+](C)C)C=C2)c2ccccc2)cc1", "note": "[Malachite green oxalate]", "values": [{"measurement": "CC50", "setting": "Tox21_110001=Tox21_110008", "result": 5.84, "unit": "µM"}, {"measurement": "CC50", "setting": "Tox21_110001=Tox21_202521", "result": 0.0943, "unit": "µM"}]}
{"smiles": "C[C@H](Cc1ccc(O)c(O)c1)[C@@H](C)Cc1ccc(O)c(O)c1", "note": "[Masoprocol]", "values": [{"measurement": "CC50", "setting": "Tox21_110001=Tox21_110210", "result": 9.04, "unit": "µM"}]}
{"smiles": "CC1=CC(=O)c2ccccc2C1=O", "note": "[Menadione]", "values": [{"measurement": "CC50", "setting": "Tox21_110001=Tox21_301367", "result": 13, "unit": "µM"}]}
{"smiles": "CN1CCCCC1CCN1c2ccccc2Sc2ccc([S+](C)[O-])cc21", "note": "(centres unmarked) [Mesoridazine]", "values": [{"measurement": "CC50", "setting": "Tox21_110001=Tox21_112018", "result": 18.9, "unit": "µM"}]}
{"smiles": "CN(Cc1cnc2nc(N)nc(N)c2n1)c1ccc(C(=O)N[C@@H](CCC(=O)O)C(=O)O)cc1", "note": "[Methotrexate]", "values": [{"measurement": "CC50", "setting": "Tox21_110001=Tox21_300269", "result": 0.164, "unit": "µM"}]}
{"smiles": "CN(C)c1ccc2nc3ccc(=[N+](C)C)cc-3sc2c1", "note": "[Methylene Blue trihydrate]", "values": [{"measurement": "CC50", "setting": "Tox21_110001=Tox21_202525", "result": 27.1, "unit": "µM"}]}
{"smiles": "CN(C)c1ccc2nc3ccc(=[N+](C)C)cc-3sc2c1", "note": "[Methylene blue]", "values": [{"measurement": "CC50", "setting": "Tox21_110001=Tox21_112497", "result": 21.1, "unit": "µM"}, {"measurement": "CC50", "setting": "Tox21_110001=Tox21_302087", "result": 45.4, "unit": "µM"}]}
{"smiles": "CCCCCCCC[N+](C)(CCCCCCCC)CCCCCCCC", "note": "[Methyltrioctylammonium chloride]", "values": [{"measurement": "CC50", "setting": "Tox21_110001=Tox21_302198", "result": 5.04, "unit": "µM"}]}
{"smiles": "CN(C)c1ccc(C(=O)c2ccc(N(C)C)cc2)cc1", "note": "[Michler's ketone]", "values": [{"measurement": "CC50", "setting": "Tox21_110001=Tox21_202416", "result": 2.74, "unit": "µM"}]}
{"smiles": "CC#C[C@]1(O)CC[C@H]2[C@@H]3CCC4=CC(=O)CCC4=C3[C@@H](c3ccc(N(C)C)cc3)C[C@@]21C", "note": "[Mifepristone]", "values": [{"measurement": "CC50", "setting": "Tox21_110001=Tox21_110952", "result": 9.81, "unit": "µM"}, {"measurement": "CC50", "setting": "Tox21_110001=Tox21_301841", "result": 36.7, "unit": "µM"}]}
{"smiles": "NCCNc1cccc2ccccc12", "note": "[N-(1-Naphthyl)ethylenediamine dihydrochloride]", "values": [{"measurement": "CC50", "setting": "Tox21_110001=Tox21_111184", "result": 10.9, "unit": "µM"}, {"measurement": "CC50", "setting": "Tox21_110001=Tox21_201928", "result": 37, "unit": "µM"}, {"measurement": "CC50", "setting": "Tox21_110001=Tox21_302783", "result": 26, "unit": "µM"}]}
{"smiles": "CC(C)Nc1ccc(Nc2ccccc2)cc1", "note": "[N-Isopropyl-N'-phenyl-p-phenylenediamine]", "values": [{"measurement": "CC50", "setting": "Tox21_110001=Tox21_111169", "result": 13.5, "unit": "µM"}, {"measurement": "CC50", "setting": "Tox21_110001=Tox21_201424", "result": 36.2, "unit": "µM"}, {"measurement": "CC50", "setting": "Tox21_110001=Tox21_303202", "result": 33.4, "unit": "µM"}]}
{"smiles": "Nc1ccc(Nc2ccccc2)cc1", "note": "[N-Phenyl-1,4-benzenediamine hydrochloride]", "values": [{"measurement": "CC50", "setting": "Tox21_110001=Tox21_200117", "result": 57.3, "unit": "µM"}]}
{"smiles": "Nc1ccc(Nc2ccccc2)cc1", "note": "[N-Phenyl-1,4-benzenediamine]", "values": [{"measurement": "CC50", "setting": "Tox21_110001=Tox21_202144", "result": 42.9, "unit": "µM"}, {"measurement": "CC50", "setting": "Tox21_110001=Tox21_300027", "result": 22.6, "unit": "µM"}]}
{"smiles": "CCc1nn(CCCN2CCN(c3cccc(Cl)c3)CC2)c(=O)n1CCOc1ccccc1", "note": "[Nefazodone hydrochloride]", "values": [{"measurement": "CC50", "setting": "Tox21_110001=Tox21_111735", "result": 9.43, "unit": "µM"}, {"measurement": "CC50", "setting": "Tox21_110001=Tox21_113574", "result": 23.6, "unit": "µM"}]}
{"smiles": "Cc1c(O)cccc1C(=O)N[C@@H](CSc1ccccc1)[C@H](O)CN1C[C@H]2CCCC[C@H]2C[C@H]1C(=O)NC(C)(C)C", "note": "[Nelfinavir mesylate]", "values": [{"measurement": "CC50", "setting": "Tox21_110001=Tox21_111021", "result": 3.68, "unit": "µM"}, {"measurement": "CC50", "setting": "Tox21_110001=Tox21_200921", "result": 1.83, "unit": "µM"}]}
{"smiles": "COC(=O)C1=C(C)NC(C)=C(C(=O)OCCN(C)Cc2ccccc2)C1c1cccc([N+](=O)[O-])c1", "note": "(centres unmarked) [Nicardipine]", "values": [{"measurement": "CC50", "setting": "Tox21_110001=Tox21_110211", "result": 7.48, "unit": "µM"}, {"measurement": "CC50", "setting": "Tox21_110001=Tox21_301832", "result": 22.2, "unit": "µM"}]}
{"smiles": "N=C(N)c1ccc(OCCCCCOc2ccc(C(=N)N)cc2)cc1", "note": "[Pentamidine isethionate]", "values": [{"measurement": "CC50", "setting": "Tox21_110001=Tox21_110742", "result": 23.4, "unit": "µM"}, {"measurement": "CC50", "setting": "Tox21_110001=Tox21_201722", "result": 63.5, "unit": "µM"}, {"measurement": "CC50", "setting": "Tox21_110001=Tox21_300312", "result": 41, "unit": "µM"}]}
{"smiles": "Nc1ccc(/N=N/c2ccccc2)c(N)n1", "note": "[Phenazopyridine hydrochloride]", "values": [{"measurement": "CC50", "setting": "Tox21_110001=Tox21_110829", "result": 18.5, "unit": "µM"}, {"measurement": "CC50", "setting": "Tox21_110001=Tox21_202153", "result": 45.2, "unit": "µM"}, {"measurement": "CC50", "setting": "Tox21_110001=Tox21_302738", "result": 44.8, "unit": "µM"}]}
{"smiles": "O=S1(=O)OC(c2ccc(O)cc2)(c2ccc(O)cc2)c2ccccc21", "note": "[Phenol red]", "values": [{"measurement": "CC50", "setting": "Tox21_110001=Tox21_303570", "result": 79.8, "unit": "µM"}]}
{"smiles": "O=C1OC(c2ccc(O)cc2)(c2ccc(O)cc2)c2ccccc21", "note": "[Phenolphthalein]", "values": [{"measurement": "CC50", "setting": "Tox21_110001=Tox21_110838", "result": 16.8, "unit": "µM"}, {"measurement": "CC50", "setting": "Tox21_110001=Tox21_202219", "result": 25.4, "unit": "µM"}, {"measurement": "CC50", "setting": "Tox21_110001=Tox21_300282", "result": 49.8, "unit": "µM"}]}
{"smiles": "CN(C)CCOc1ccccc1Cc1ccccc1", "note": "[Phentoloxamine PAS]", "values": [{"measurement": "CC50", "setting": "Tox21_110001=Tox21_113232", "result": 25.5, "unit": "µM"}]}
{"smiles": "CN(C)CCOc1ccccc1Cc1ccccc1", "note": "[Phenyltoloxamine citrate]", "values": [{"measurement": "CC50", "setting": "Tox21_110001=Tox21_110862", "result": 9.16, "unit": "µM"}]}
{"smiles": "COc1cc([C@@H]2c3cc4c(cc3[C@H](O)[C@H]3COC(=O)[C@H]23)OCO4)cc(OC)c1OC", "note": "[Podofilox]", "values": [{"measurement": "CC50", "setting": "Tox21_110001=Tox21_202922", "result": 0.0227, "unit": "µM"}]}
{"smiles": "CC(CN1c2ccccc2Sc2ccccc21)N(C)C", "note": "(centres unmarked) [Promethazine]", "values": [{"measurement": "CC50", "setting": "Tox21_110001=Tox21_110227", "result": 17.9, "unit": "µM"}]}
